Laboratory results: patent publication US9375005B2, “5-halogenopyrazole indanyl carboxamides” (BAYER CROPSCIENCE AG, priority 2012, dated 2016)

Key:
Alternaria brassicae = assay: In vivo preventive test on Alternaria brassicae (leaf spot on radish); settings: dose 500 ppm; radish plants sprayed 24 h before contamination; grading 6 days after contamination vs control plants
Experimental: Radish plants (“Pernod Clair” variety), sown in starter cups on a 50/50 peat soil-pozzolana substrate and grown at 17° C., are treated at the cotyledon stage by spraying with the active ingredient prepared as described above. Plants, used as controls, are treated with the mixture of acetone/tween/DMSO/water not containing the active material. After 24 hours, the plants are contaminated by spraying the cotyledons with an aqueous suspension of Alternaria brassicae spores (50 000 spores per ml). The spores are collected from a 15-day-old culture. […] Grading (% of efficacy) is carried out 6 days after the contamination, in comparison with the control plants.

Puccinia recondita = assay: In vivo preventive test on Puccinia recondita (brown rust on wheat); settings: wheat plants sprayed 24 h before contamination, grading 12 days after contamination
Experimental: Plants, used as controls, are treated with the mixture of acetone/tween/DMSO/water not containing the active material. After 24 hours, the plants are contaminated by spraying the leaves with an aqueous suspension of Puccinia recondita spores (100 000 spores per ml). […] Grading (% of efficacy) is carried out 12 days after the contamination, in comparison with the control plants.

Uromyces appendiculatus = assay: In vivo preventive test on Uromyces appendiculatus (bean rust); settings: bean plants sprayed 24 h before contamination, grading 11 days after contamination
Experimental: Bean plants (“Saxa” variety), sown in starter cups on a 50/50 peat soil-pozzolana substrate and grown at 24° C., are treated at the 2-leaf stage (9 cm height) by spraying with the active ingredient prepared as described above. Plants, used as controls, are treated with the mixture of acetone/tween/DMSO/water not containing the active material. After 24 hours, the plants are contaminated by spraying the leaves with an aqueous suspension of Uromyces appendiculatus spores (150 000 spores per ml). […] Grading (% of efficacy) is carried out 11 days after the contamination, in comparison with the control plants.

[1] = Measurement of log P values by HPLC on reversed phase columns (EEC directive 79/831 Annex V.A8); format: physicochemical
Pyrenophora teres = assay: In vivo preventive test on Pyrenophora teres (net blotch on barley); settings: barley plants sprayed 24 h before contamination, grading 14 days after contamination
Experimental: Barley plants (“Plaisant” variety), sown in starter cups on a 50/50 peat soil-pozzolana substrate and grown at 22° C., are treated at the 1-leaf stage (10 cm height) by spraying with the active ingredient prepared as described above. Plants, used as controls, are treated with the mixture of acetone/tween/DMSO/water not containing the active material. After 24 hours, the plants are contaminated by spraying the leaves with an aqueous suspension of Pyrenophora teres spores (12 000 spores per ml). The spores are collected from a 12-day-old culture. […] Grading (% of efficacy) is carried out 14 days after the contamination, in comparison with the control plants.

Sphaerotheca fuliginea = assay: In vivo preventive test on Sphaerotheca fuliginea (powdery mildew on cucurbits); settings: gherkin plants sprayed 24 h before contamination, grading 12 days after contamination
Experimental: Gherkin plants (“Vert petit de Paris” variety), sown in starter cups on a 50/50 peat soil-pozzolana substrate and grown at 24° C., are treated at the Z11 cotyledon stage by spraying with the active ingredient prepared as described above. Plants, used as controls, are treated with the mixture of acetone/tween/DMSO/water not containing the active material. After 24 hours, the plants are contaminated by spraying the cotyledons with an aqueous suspension of Sphaerotheca fuliginea spores (100 000 spores per ml). The spores are collected from infected plants. The contaminated to gherkin plants are incubated at about 20° C. and at 70-80% relative humidity. Grading (% of efficacy) is carried out 12 days after the contamination, in comparison with the control plants.

logP ([1]; method marked [a]) | Structure (SMILES) | Eff. % (Puccinia recondita; dose 500 ppm) | Eff. % (Uromyces appendiculatus; dose 500 ppm) | Eff. % (Pyrenophora teres; dose 500 ppm) | further results
– | CON=C1c2cccc(NC(=O)c3c(C(F)F)nn(C)c3F)c2CC1(C)C (mixture of isomers) [Example 61] | 86% | – | – | Eff. % (Alternaria brassicae): 75%
3.27[a] | CCON=C1CCc2c(NC(=O)c3c(C(F)F)nn(C)c3Cl)cccc21 [Example 26] | 94% | 100% | – | Eff. % (Alternaria brassicae): 72%
4.2[a] | CC1c2c(NC(=O)c3c(C(F)F)nn(C)c3Cl)cccc2C(C)(C)C1C (centres unmarked) [Example 85] | 98% | 99% | 92% | –
4.77[a]; | CC1CC(C)(C)c2c(Br)ccc(NC(=O)c3c(C(F)F)nn(C)c3Cl)c21 (centres unmarked) [Example 36] | – | 77% | 75% | logP ([1]; method marked [b]): 4.68[b]
– | CC(C)CC1CCc2c(NC(=O)c3c(C(F)F)nn(C)c3Cl)cccc21 (centres unmarked) [Example 66] | 100% | 100% | 80% | Eff. % (Alternaria brassicae): 97%
3.52[a] | CCCON=C1CCc2c(NC(=O)c3c(C(F)F)nn(C)c3F)cccc21 [Example 28] | – | – | – | Eff. % (Alternaria brassicae): 71%
4.88[a] | CC1CC2(CCCCC2)c2cccc(NC(=S)c3c(C(F)F)nn(C)c3F)c21 (centres unmarked) [Example 104] | – | – | – | Eff. % (Uromyces appendiculatus; dose 100 ppm): 100%; Eff. % (Sphaerotheca fuliginea; dose 100 ppm): 100%; Eff. % (Puccinia recondita; dose 100 ppm): 100%
3.58[a] | Cn1nc(C(F)F)c(C(=O)Nc2cccc3c2CCC32CC2)c1Cl [Example 14] | 100% | 100% | – | Eff. % (Alternaria brassicae): 97%
4.64[a] | Cn1nc(C(F)F)c(C(=S)Nc2cccc3c2CCC3C(C)(C)C)c1Cl (centres unmarked) [Example 74] | 100% | 100% | – | Eff. % (Sphaerotheca fuliginea; dose 500 ppm): 98%
4.58[a] | CCC1Cc2c(NC(=S)c3c(C(F)F)nn(C)c3Cl)cccc2C1(C)C (centres unmarked) [Example 105] | – | – | – | Eff. % (Uromyces appendiculatus; dose 100 ppm): 100%; Eff. % (Sphaerotheca fuliginea; dose 100 ppm): 94%; Eff. % (Pyrenophora teres; dose 100 ppm): 70%; Eff. % (Puccinia recondita; dose 100 ppm): 100%
4.03[a] | CC1CC(C)(C)c2cccc(NC(=O)c3c(C(F)F)nn(C)c3Br)c21 (centres unmarked) [Example 42] | 100% | 100% | – | Eff. % (Sphaerotheca fuliginea; dose 500 ppm): 100%
4.59[a] | CC(C)CC1CCc2c(NC(=O)c3c(C(F)F)nn(C)c3F)cccc21 (centres unmarked) [Example 41] | 97% | 100% | – | Eff. % (Alternaria brassicae): 95%
4.24[a] | CCCCON=C1CCc2c(NC(=O)c3c(C(F)F)nn(C)c3Cl)cccc21 [Example 22] | – | – | – | Eff. % (Alternaria brassicae): 86%
4.76[a] | CC(C)C1Cc2c(NC(=S)c3c(C(F)F)nn(C)c3F)cccc2C1(C)C (centres unmarked) [Example 95] | – | – | – | Eff. % (Uromyces appendiculatus; dose 100 ppm): 100%; Eff. % (Sphaerotheca fuliginea; dose 100 ppm): 100%; Eff. % (Pyrenophora teres; dose 100 ppm): 70%; Eff. % (Puccinia recondita; dose 100 ppm): 98%
4.64[a]; | CC1CC(C)(C)c2c(Br)ccc(NC(=S)c3c(C(F)F)nn(C)c3F)c21 (centres unmarked) [Example 55] | 94% | 70% | 75% | logP ([1]; method marked [b]): 4.49[b]
3.92[a] | CCCON=C1CC(C)c2c(NC(=O)c3c(C(F)F)nn(C)c3Cl)cccc21 (centres unmarked) [Example 84] | 81% | – | 75% | –
3.31[a] | CC1Cc2cccc(NC(=O)c3c(C(F)F)nn(C)c3F)c2C1 (centres unmarked) [Example 7] | 98% | 100% | – | Eff. % (Sphaerotheca fuliginea; dose 500 ppm): 78%
4.91[a]; | CC1CC(C)(C)c2c(I)ccc(NC(=O)c3c(C(F)F)nn(C)c3Cl)c21 (centres unmarked) [Example 20] | 98% | 99% | 97% | logP ([1]; method marked [b]): 4.89[b]

logP ([1]; method marked [a]) | Structure (SMILES) | Eff. % (Puccinia recondita; dose 500 ppm) | Eff. % (Uromyces appendiculatus; dose 500 ppm) | Eff. % (Pyrenophora teres; dose 500 ppm) | further results
4.44[a] | Cn1nc(C(F)F)c(C(=O)Nc2cccc3c2CC2(CCCC2)C3)c1Cl [Example 15] | 100% | 100% | 71% | –
2.75[a] | CON=C1CC(C)c2c(NC(=O)c3c(C(F)F)nn(C)c3F)cccc21 (centres unmarked) [Example 58] | 75% | 95% | – | –
3.42[a] | CCON=C1CC(C)c2c(NC(=O)c3c(C(F)F)nn(C)c3Cl)cccc21 (centres unmarked) [Example 82] | 88% | 99% | 75% | –
4.69[a] | CC(C)C1Cc2c(NC(=O)c3c(C(F)F)nn(C)c3Cl)cccc2C1C (centres unmarked) [Example 21] | 98% | 100% | – | Eff. % (Sphaerotheca fuliginea; dose 500 ppm): 89%
4.92[a] | CC(C)C1Cc2c(NC(=O)c3c(C(F)F)nn(C)c3Br)cccc2C1(C)C (centres unmarked) [Example 68] | 98% | 100% | – | –
4.6[a]; | CC1CC(C)(C)c2c(Cl)ccc(NC(=O)c3c(C(F)F)nn(C)c3Cl)c21 (centres unmarked) [Example 12] | 93% | 96% | – | Eff. % (Alternaria brassicae): 94%; logP ([1]; method marked [b]): 4.53[b]
4.31[a] | CCC1(C)CCc2c(NC(=O)c3c(C(F)F)nn(C)c3Cl)cccc21 (single isomer, unassigned) [Example 52] | 98% | 100% | 80% | –
4.19[a] | CC1c2cccc(NC(=O)c3c(C(F)F)nn(C)c3Cl)c2CC1(C)C (centres unmarked) [Example 77] | 100% | 100% | – | Eff. % (Sphaerotheca fuliginea; dose 500 ppm): 98%
4.16[a] | CC1Cc2c(NC(=O)c3c(C(F)F)nn(C)c3Br)cccc2C1(C)C (centres unmarked) [Example 13] | 75% | 79% | – | –
4.9[a] | CC(C)C1Cc2c(NC(=S)c3c(C(F)F)nn(C)c3Cl)cccc2C1(C)C (centres unmarked) [Example 92] | – | – | – | Eff. % (Uromyces appendiculatus; dose 100 ppm): 100%; Eff. % (Sphaerotheca fuliginea; dose 100 ppm): 100%; Eff. % (Pyrenophora teres; dose 100 ppm): 70%; Eff. % (Puccinia recondita; dose 100 ppm): 94%
4.98[a] | CC(C)CC1CC(C)c2c(NC(=O)c3c(C(F)F)nn(C)c3Cl)cccc21 (centres unmarked) [Example 79] | 94% | 100% | 92% | –
3.87[a] | CC1Cc2c(NC(=O)c3c(C(F)F)nn(C)c3Cl)cccc2C1C (centres unmarked) [Example 62] | 94% | 100% | – | –
4.46[a] | CCC1Cc2c(NC(=S)c3c(C(F)F)nn(C)c3F)cccc2C1(C)C (centres unmarked) [Example 106] | – | – | – | Eff. % (Uromyces appendiculatus; dose 100 ppm): 94%; Eff. % (Sphaerotheca fuliginea; dose 100 ppm): 89%; Eff. % (Pyrenophora teres; dose 100 ppm): 80%; Eff. % (Puccinia recondita; dose 100 ppm): 100%
5.03[a] | Cn1nc(C(F)F)c(C(=O)Nc2cccc3c2CC(C2CCCC2)C3)c1Cl (centres unmarked) [Example 57] | 94% | 100% | 97% | –
5.01[a] | CC1CC2(CCCCC2)c2cccc(NC(=O)c3c(C(F)F)nn(C)c3Cl)c21 (centres unmarked) [Example 110] | – | – | – | Eff. % (Uromyces appendiculatus; dose 100 ppm): 99%; Eff. % (Puccinia recondita; dose 100 ppm): 83%
5.01[a] | CC1CC2(CCCCC2)c2cccc(NC(=S)c3c(C(F)F)nn(C)c3Cl)c21 (centres unmarked) [Example 108] | – | – | – | Eff. % (Uromyces appendiculatus; dose 100 ppm): 100%; Eff. % (Puccinia recondita; dose 100 ppm): 90%
4.23[a] | CC1c2c(NC(=O)c3c(C(F)F)nn(C)c3Br)cccc2C(C)(C)C1C (centres unmarked) [Example 65] | 94% | 95% | – | –
5.31[a] | CC1CC(CC(C)(C)C)c2cccc(NC(=S)c3c(C(F)F)nn(C)c3Cl)c21 (centres unmarked) [Example 98] | 98% | 100% | – | Eff. % (Sphaerotheca fuliginea; dose 500 ppm): 98%
